Assays:
[1] = molecular target: T1, chimeric receptor hRGR (human retinoic acid receptor with hGR DNA-binding domain) (Homo sapiens, UniProt P10276, INS60IETQSSSSEEIVPSPPSPPPLPRPPKLCLVCSDEASGCHYGVLTCGSCKVFFKRAVEGQHNYLCAGRNDCIIDKIRRKNCPACRYRKCLQAGMNLES); assay: Functional ligand identification assay: CAT induction in CV-1 cells cotransfected with pRShRGR and MTV-CAT; format: cell-based; settings: for Induction of CAT activity of the hybrid receptor (in words): pRShRGR + MTV-CAT, FIG. 2B at 100 nM, FIG. 3A increasing concentrations; for Induction of CAT activity of the hybrid receptor by natural and synthetic non-retinoid ligands: pRShRGR + pMTVCAT, single 1 μM dose (FIG. 3A legend)
T1 construct: expressed in transfected cells; host or cells: CV-1 (African Green monkey kidney) cells, cotransfected with pRShRGR and pMTVCAT
T1 sequence (P10276 with tags, fused parts or gaps isoform P10276-3 INS60IETQSSSSEEIVPSPPSPPPLPRPPKLCLVCSDEASGCHYGVLTCGSCKVFFKRAVEGQHNYLCAGRNDCIIDKIRRKNCPACRYRKCLQAGMNLES): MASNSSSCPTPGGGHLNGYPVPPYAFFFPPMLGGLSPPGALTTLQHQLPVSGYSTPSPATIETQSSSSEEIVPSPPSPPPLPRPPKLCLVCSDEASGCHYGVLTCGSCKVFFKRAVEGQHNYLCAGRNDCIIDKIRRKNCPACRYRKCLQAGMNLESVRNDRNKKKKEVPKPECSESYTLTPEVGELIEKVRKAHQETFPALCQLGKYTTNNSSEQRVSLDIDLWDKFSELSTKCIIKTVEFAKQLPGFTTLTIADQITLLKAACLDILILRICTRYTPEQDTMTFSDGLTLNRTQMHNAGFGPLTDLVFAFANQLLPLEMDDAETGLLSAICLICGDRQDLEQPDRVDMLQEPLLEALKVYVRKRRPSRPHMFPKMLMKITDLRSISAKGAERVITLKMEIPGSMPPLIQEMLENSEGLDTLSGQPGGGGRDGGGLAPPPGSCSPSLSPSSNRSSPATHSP
From the text: Since the ligand for the gene product of phRAR1 was unknown, it was desirable to develop a quick and sensitive assay to reveal its identity. […] This chimera recognizes the glucocorticoid responsive element of the MMTV-LTR but stimulates transcription in an estrogen-dependent fashion (see Green, et al., (1987)). This led us to wonder if a general domain-swapping strategy could be exploited to identify the ligand-binding properties of a novel hormone receptor. To test this approach we first substituted the DNA-binding domain of the phRAR1 gene product with the well described DNA-binding domain from the hGR (FIG. 2A). (This chimeric construction, when expressed in suitable host cells, produces a hybrid receptor protein whose ligand-binding domain region must bind with a functional exogenous ligand before the ligand/receptor complex can bind to a GRE, thereby activating a glucocorticoid inducible promoter.)
To assay for the presence of a functional ligand the chimeric receptor gene was transfected into suitable host cells along with a suitable GRE linked reporter gene. CV-1 cells were used for the assay along with a MMTV-CAT reporter gene. (MMTV-CAT is carried on reporter plasmid, GM-CAT, which has been deposited with the American Type Culture Collection for patent purposes; see the section of this specification labeled, "Deposits"). […] For example, the growth hormone promoter can be functionally linked to the bacterial CAT gene. Since the growth hormone promoter contains a thyroid responsive transcription element, such a reporter plasmid can be used to assay hybrid thyroid receptor proteins. See the subheading: "Construction of Reporter and Expression Plasmids" in this specification. (Since mineralocorticoid receptors can activate GRE's, a reporter plasmid such as GM-CAT can be used to assay hybrid mineralocorticoid receptor proteins.)
Returning to the functional ligand identification assay, the transfected cells were then systematically challenged with a battery of candidate ligands and induction monitored by changes in CAT activity.
(§1) FIGS. 2A and 2B. 2A, Construction of the chimeric receptor hRGR. The domain-structure of the various constructions are shown schematically, the numbers correspond to the amino acid positions of each domain. The DNA-binding domains are represented by "DNA" and the ligand-binding domains by their respective inducers. The Nor1 and Xho1 sites created by site-directed mutagenesis to permit the exchange of the DNA-binding domains between receptors are indicated.
(§2) Methods. […] The mutant receptors were then transferred to the expression vector pRS (see Giguere, et al., (1986), and the Not1/Xho1 restriction fragment of pRShGRNX containing the hGR DNA-binding domain was introduced into pRShRnx between the Not1 and Xho1 sites to create pRShRGR. B, Cell transfection and CAT assay. The recombinant DNA constructs (5 μg each) were introduced into CV-1 cells by calcium phosphate coprecipitation (see Wigler, et al., (1979)). The cells were then cultured for two days in serum free media supplemented with Nutridoma (Boehringer Mannheim) in presence or absence of inducers. CV-1 cells were then prepared for CAT assays as described by Gorman, et al. (1982) and the assays performed for 3 h using 25 μg of protein extract. All experiments with retinol were conducted in subdued light.
(§3) FIGS. 3A and 3B. 3A, Dose-response to retinoids. […] The levels of CAT activity were plotted as percentages of the maximal response observed in this experiment. […] The values represent the mean of quadruplicate determinations.
Methods. 3A, CV-1 cell cotransfections and CAT assays were performed as described in FIG. 2.

[2] = test system: human glucocorticoid receptor (hGR); assay: CAT induction in CV-1 cells cotransfected with pRShGR and MTV-CAT; format: cell-based; settings: pRShGR + MTVCAT, 100 nM, 2 days
From the text: as §1, §2

[3] = test system: human retinoic acid receptor (hRARα); assay: CAT induction in CV-1 cells cotransfected with pRShRR and MTV-CAT; format: cell-based; settings: pRShRR + MTVCAT, 100 nM, 2 days
From the text: as §1, §2

[4] = test system: mutated human retinoic acid receptor with Not1 and Xho1 sites (pRShRRNX); assay: CAT induction in CV-1 cells cotransfected with parent vector pRShRRNX and MTV-CAT; format: cell-based; settings: pRShRRNX + MTVCAT, 100 nM, 2 days
From the text: as §1, §2

[5] = molecular target: T2, phRAR1 gene product (human retinoic acid receptor) (Homo sapiens, UniProt P10276); assay: 3H-retinoic acid binding to cytosol extracts of COS-1 cells transfected with pRShRR; settings: for Competition of 3H-retinoic acid binding: cytosol of transfected COS-1 cells, 2×10^-8 M 3H-retinoic acid, 1000-fold excess (2×10^-5 M) competitor, 4° C., 16 h
T2 sequence (P10276 1-462): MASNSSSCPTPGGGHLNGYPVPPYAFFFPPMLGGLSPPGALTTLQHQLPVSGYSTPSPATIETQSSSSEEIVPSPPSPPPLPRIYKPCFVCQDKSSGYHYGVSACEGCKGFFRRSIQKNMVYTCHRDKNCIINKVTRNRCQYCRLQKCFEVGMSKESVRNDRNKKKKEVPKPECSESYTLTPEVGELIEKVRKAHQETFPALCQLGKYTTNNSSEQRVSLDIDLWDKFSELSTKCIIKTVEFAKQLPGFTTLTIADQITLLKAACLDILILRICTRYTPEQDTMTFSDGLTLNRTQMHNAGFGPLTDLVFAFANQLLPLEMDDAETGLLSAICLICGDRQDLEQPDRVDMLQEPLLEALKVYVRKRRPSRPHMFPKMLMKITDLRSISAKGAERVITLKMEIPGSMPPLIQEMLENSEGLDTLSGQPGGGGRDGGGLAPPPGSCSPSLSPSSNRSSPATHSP
Description: as §3
Methods. 3A, CV-1 cell cotransfections and CAT assays were performed as described in FIG. 2. […] All other products were diluted in ethanol and control cultures received 0.1% solvent (v/v) in media. Dose-response curves of retinoid treatment were performed in triplicate. 3B, Subconfluent COS-1 cells were transfected with 10 μg/dish of a control plasmid (pRS) or pRShRR by the DEAE-Dextran method (see Deans, et al., (1984)). Cells were maintained for 2 days in DMEM with 5% charcoal-treated fetal calf serum, then harvested in TNE (40 mM tris-HCl pH 7.5, 150 mM NaCl, 1 mM EDTA) and lysed by Dounce homogenization in hypotonic buffer (50 mM tris-HCl pH 7.4, 0.1 mM EDTA, 5 mM dithiothreitol,10 mM NaMoO4, 10% glycerol, 0.5 mM phenylmethylsulfonyl fluoride) and centrifuged at 100,000×g for 30 min to yield the cytosol fraction. […] Specific binding was measured by the addition of 2×10^-5 M of competitors. Reactions were carried out at 4° C. for 16 h. […] Reactions were placed on filters for 1 min and then rinsed with 5 ml of washing buffer (50 mM tris-HCl pH 7.4, 0.1 mM EDTA, 0.1% Triton X-100). Filters were dried and counted by liquid scintillation spectrophotometry.

[6] = test system: hybrid receptors with an hTRβ carboxyl terminus; assay: Hybrid thyroid/glucocorticoid receptor CAT assay, hybrids with hTRβ carboxyl terminus; format: cell-based, human; settings: CV-1 cells, FIG. 9
Description: CV-1 cells were used as the receptor-deficient host cells that were transfected with expression plasmids that carry the chimeric RR/TR receptors, and reporter plasmids carrying the CAT reporter gene. […] Acetylated and non-acetylated forms of [^14 C]chloramphenicol were separated by thin layer chromatography, excised, and quantitated by liquid scintillation counting in Econofluor (DuPont) with 5% DMSO. β-galactosidase assays were performed as described by Herbomel et al. (1984). CAT activity is expressed as percent conversion divided by β-galactosidase activity.

[7] = test system: alpha thyroid hormone receptor (rTRα); settings: CV-1 cells, absence or presence of T3 (data not shown)
[8] = test system: beta thyroid hormone receptor (hTRβ); settings: CV-1 cells, absence or presence of T3 (data not shown)

## CC1=C(/C=C/C(C)=C/C=C/C(C)=C/C(=O)O)C(C)(C)CCC1 [retinoic acid]
[1]
  Induction of CAT activity of the hybrid receptor (in words): dramatic increase in CAT activity
[2]
  Induction of hGR (CAT activity): not induced
[3]
  Effect upon CAT activity using wild type gene product hRARα: No effect upon CAT activity
[4]
  Effect upon CAT activity using parent vector pRShRRNX: No effect upon CAT activity
[5]
  Competition of 3H-retinoic acid binding: fully competed

## C[C@]12CCC(=O)C[C@@H]1CC[C@@H]1[C@@H]2CC[C@]2(C)[C@@H](O)CC[C@@H]12 [dihydrotestosterone]
[1]
  Induction of CAT activity of the hybrid receptor by natural and synthetic non-retinoid ligands: failed to induce CAT activity

## C[C@]12CCC(=O)C=C1CC[C@@H]1[C@@H]2[C@@H](O)C[C@@]2(C)[C@H]1CC[C@]2(O)C(=O)CO [cortisol]
[1]
  Induction of CAT activity of the hybrid receptor by natural and synthetic non-retinoid ligands: failed to induce CAT activity

## N[C@@H](Cc1cc(I)c(Oc2ccc(O)c(I)c2)c(I)c1)C(=O)O [T3, 3,5,3'-triiodo-L-thyronine]
[6]
  Activation of hybrid receptors by hormone: activated
[7]
  Activation of transcription from MTV-CAT (no TRE): neither the alpha nor the beta thyroid hormone receptor activates transcription
[8]
  Activation of transcription from MTV-CAT (no TRE): neither the alpha nor the beta thyroid hormone receptor activates transcription

## CC1=C(/C=C/C(C)=C/C=C/C(C)=C/CO)C(C)(C)CCC1 [retinol]
[1]
  Induction of CAT activity of the hybrid receptor (in words): weak agonist
[5]
  Competition of 3H-retinoic acid binding: only partially

## C=C1CC[C@H](O)C/C1=C/C=C1\CCC[C@]2(C)[C@@H]([C@H](C)CCCC(C)C)CC[C@@H]12 [Vitamin D3]
[1]
  Induction of CAT activity of the hybrid receptor by natural and synthetic non-retinoid ligands: failed to induce CAT activity
[5]
  Competition of 3H-retinoic acid binding: did not compete

## C[C@]12CC[C@H]3[C@@H](CCC4=CC(=O)CC[C@@]43C)[C@@H]1CC[C@@H]2O [testosterone]
[1]
  Induction of CAT activity of the hybrid receptor by natural and synthetic non-retinoid ligands: failed to induce CAT activity

## C[C@H](CCCC(C)(C)O)[C@H]1CC[C@H]2[C@@H]3CC=C4C[C@@H](O)CC[C@]4(C)[C@H]3CC[C@]12C [25-OH-cholesterol]
[1]
  Induction of CAT activity of the hybrid receptor by natural and synthetic non-retinoid ligands: failed to induce CAT activity

## estrogen
[1]
  Induction of CAT activity of the hybrid receptor by natural and synthetic non-retinoid ligands: failed to induce CAT activity

## N[C@@H](Cc1cc(I)c(Oc2cc(I)c(O)c(I)c2)c(I)c1)C(=O)O [T4, thyroxine]
[1]
  Induction of CAT activity of the hybrid receptor by natural and synthetic non-retinoid ligands: failed to induce CAT activity

## CC(=O)[C@H]1CC[C@H]2[C@@H]3CCC4=CC(=O)CC[C@]4(C)[C@H]3CC[C@]12C [progesterone]
[1]
  Induction of CAT activity of the hybrid receptor by natural and synthetic non-retinoid ligands: failed to induce CAT activity

## C[C@]12CCC(=O)C=C1CC[C@@H]1[C@@H]2[C@@H](O)C[C@]2(C=O)[C@@H](C(=O)CO)CC[C@@H]12 [aldosterone]
[1]
  Induction of CAT activity of the hybrid receptor by natural and synthetic non-retinoid ligands: failed to induce CAT activity

## ^3 H-retinoic acid
[5]; COS-1 cells transfected with pRShRR versus control plasmid pRS
  Specific binding of 3H-retinoic acid by transfected cells: increased capacity to specifically bind

## CCCCCCCCCCCCCCCC(=O)OC/C=C(C)/C=C/C=C(C)/C=C/C1=C(C)CCCC1(C)C [retinyl palmitate]
[1]
  Induction of CAT activity of the hybrid receptor (in words): even weaker inducers
